Assay: Effect of excipients on suppression of related substance formation (compound (IV) alone or mixed with excipient, stored at 60° C. for two weeks, HPLC)
Type: physicochemical
Details: compound (IV) only; for Relative amount (%) of related substance C after storage of 60° C./2 W: 60° C. two weeks
Procedure: Effect of excipients on suppression of related substance formation was examined. The excipients were physically (dry) mixed or were wet-kneaded using purified water with the compound (IV) in designated ratios in Table 1. The wet-kneaded materials were dried at 60° C. with ventilation. The dried materials were subdivided in glass bottles and the bottles were capped. The capped samples were stored at 60° C. for two weeks and the effect on suppression of related substance formation was estimated by the increased amount of related substances.
The relative amounts of the related substances in a 25 mg tablet obtained in the following Examples were determined by HPLC under the following conditions.
Detector: Ultraviolet spectrophotometer (wavelength: 245 nm)
Column: Unison UK-C18, 3 μm, 4.6×100 mm (Imtakt)
Column temperature: 40° C. Solution A: 0.1% trifluoroacetic acid solution
Flow rate: About 1.0 mL/min
• Compound (IV): 9 to 10 min; • Related substance A: 20 to 21 min; • Related substance B: 21 to 22 min; • Related substance C: 22 to 23 min; • Related substance D: 28 to 29 min; • Related substance E: 36 to 37 min. Injection volume: 10 μL Analytical time: 45 min
Related substances of compound (IV) were calculated by the following equation.
As: Peak area of compound (IV) in a standard solution Ai: Peak area of individual related substance ΣAi: Sum of peak area of individual related substance

- Relative amount (%) of related substance C after storage of 60° C./2 W (milled, capped glass bottle, % peak area of HPLC): 0.19%
- Relative amount (%) of related substance C, Initial (milled, before storage): (Initial: 0.05%)
- Relative amount (%) of related substance C after storage of 60° C./2 W (wet-kneaded): 0.16%
SMILES: C[C@@]1(c2cc(NC(=O)c3ccc(C#N)cn3)ccc2F)C=CSC(N)=N1 [compound (IV)]

From US20190060325A1, “STABILIZED SOLID DOSAGE FORM” (SHIONOGI & CO., LTD., priority 2016, published 2019)
